ChEMBL document CHEMBL3045804, “Synthesis and Herbicidal Activity of 2-Benzylamino-4-methyl-6-trifluoromethyl-1, 3, 5-triazune Derivatives” (J Pestic Sci, 1998)

System: Stellaria media
Assay: Herbicidal activity against Stellaria media assessed as killing at 400 g/10 acre measured after 3 weeks by post-emergence/foliar application test
Format: functional

`CC(C)c1nc(NCc2ccccc2)nc(C(F)(F)F)n1` and `Cc1nc(NCc2ccccc2)nc(C(Cl)(Cl)Cl)n1` are the same in Activity: 0% for the first, 0% for the second.

`Cc1ncnc(NCc2ccccc2)n1` and `Cc1nc(NCc2ccccc2)nc(-c2ccccc2)n1` are the same in Activity: 0% for the first, 0% for the second.

System: Rotala indica
Assay: Herbicidal activity against Rotala indica assessed as killing at 800 g/10 acre measured after 3 weeks by pre-emergence/paddy application test
Format: functional

Going from `Cc1nc(NCCCc2ccccc2)nc(C(F)(F)F)n1` to `Cc1nc(NCCc2ccccc2)nc(C(F)(F)F)n1`, the Activity rises from 51% to 91%.

`CCc1nc(NCc2ccccc2)nc(C(F)(F)F)n1` and `Cc1nc(NCc2ccccc2)nc(C(F)(F)F)n1` are the same in Activity: 91% for the first, 91% for the second.

Compared with `Cc1nc(C)nc(NCc2ccccc2)n1`, `CCc1nc(C)nc(NCc2ccccc2)n1` is higher in Activity: 1% for the first, 51% for the second.

`CC(C)c1nc(NCc2ccccc2)nc(C(F)(F)F)n1` and `Cc1nc(NCc2ccccc2)nc(C(Cl)(Cl)Cl)n1` are the same in Activity: 91% for the first, 91% for the second.

First: Cc1ncnc(NCc2ccccc2)n1
Second: CCCc1nc(C)nc(NCc2ccccc2)n1
The Activity of the first is lower: 0% for the first, 26% for the second.

In the case of `Cc1nc(NCc2ccccc2)nc(-c2ccccc2)n1`, the Activity is reported as 0%.

System: Chenopodium album
Assay: Herbicidal activity against Chenopodium album assessed as killing at 100 g/10 acre measured after 3 weeks by post-emergence/foliar application test
Format: functional

Molecule `CCNc1nc(Cl)nc(NC(C)C)n1` [ATRAZINE] has an Activity of 100%.

System: Schoenoplectiella juncoides
Assay: Herbicidal activity against Schoenoplectiella juncoides assessed as killing at 800 g/10 acre measured after 3 weeks by pre-emergence/paddy application test
Format: functional

First: Cc1nc(NCCCc2ccccc2)nc(C(F)(F)F)n1
Second: Cc1nc(NCCc2ccccc2)nc(C(F)(F)F)n1
The Activity of the first is lower: 1% for the first, 26% for the second.

First: CCc1nc(NCc2ccccc2)nc(C(F)(F)F)n1
Second: Cc1nc(NCc2ccccc2)nc(C(F)(F)F)n1
The Activity of the first is higher: 100% for the first, 76% for the second.

First: Cc1nc(C)nc(NCc2ccccc2)n1
Second: CCc1nc(C)nc(NCc2ccccc2)n1
The Activity of the first is lower: 0% for the first, 1% for the second.

Going from `CC(C)c1nc(NCc2ccccc2)nc(C(F)(F)F)n1` to `Cc1nc(NCc2ccccc2)nc(C(Cl)(Cl)Cl)n1`, the Activity falls from 100% to 51%.

Compared with `Cc1ncnc(NCc2ccccc2)n1`, `CCCc1nc(C)nc(NCc2ccccc2)n1` is higher in Activity: 0% for the first, 1% for the second.

`Cc1nc(NCc2ccccc2)nc(-c2ccccc2)n1` was tested, and the Activity was 0%.

System: Stellaria media
Assay: Herbicidal activity against Stellaria media assessed as killing at 800 g/10 acre measured after 3 weeks by pre-emergence/field application test
Format: functional

`Cc1nc(NCCCc2ccccc2)nc(C(F)(F)F)n1` and `Cc1nc(NCc2ccccc2)nc(C(F)(F)F)n1` are the same in Activity: 100% for the first, 100% for the second.

Compared with `CCc1nc(NCc2ccccc2)nc(C(F)(F)F)n1`, `CC(C)c1nc(NCc2ccccc2)nc(C(F)(F)F)n1` is lower in Activity: 100% for the first, 26% for the second.

`Cc1nc(C)nc(NCc2ccccc2)n1` and `CCCc1nc(C)nc(NCc2ccccc2)n1` are the same in Activity: 0% for the first, 0% for the second.

`Cc1ncnc(NCc2ccccc2)n1` and `Cc1nc(NCc2ccccc2)nc(C(Cl)(Cl)Cl)n1` are the same in Activity: 0% for the first, 0% for the second.

`Cc1nc(NCc2ccccc2)nc(-c2ccccc2)n1` was tested, and the Activity was 0%.

System: Echinochloa crus-galli
Assay: Herbicidal activity against Echinochloa crus-galli (barnyard grass) assessed as killing at 400 g/10 acre measured after 3 weeks by post-emergence/foliar application test
Format: functional

First: Cc1nc(NCCCc2ccccc2)nc(C(F)(F)F)n1
Second: Cc1nc(NCCc2ccccc2)nc(C(F)(F)F)n1
The Activity of the first is higher: 91% for the first, 0% for the second.

First: CCc1nc(NCc2ccccc2)nc(C(F)(F)F)n1
Second: Cc1nc(NCc2ccccc2)nc(C(F)(F)F)n1
The Activity of the first is lower: 1% for the first, 51% for the second.

`Cc1nc(C)nc(NCc2ccccc2)n1` and `CCCc1nc(C)nc(NCc2ccccc2)n1` are the same in Activity: 1% for the first, 1% for the second.

`CC(C)c1nc(NCc2ccccc2)nc(C(F)(F)F)n1` and `Cc1nc(NCc2ccccc2)nc(C(Cl)(Cl)Cl)n1` are the same in Activity: 0% for the first, 0% for the second.

`Cc1ncnc(NCc2ccccc2)n1` and `Cc1nc(NCc2ccccc2)nc(-c2ccccc2)n1` are the same in Activity: 0% for the first, 0% for the second.

System: Echinochloa crus-galli
Assay: Herbicidal activity against Echinochloa crus-galli (barnyard grass) assessed as killing at 800 g/10 acre measured after 3 weeks by pre-emergence/field application test
Format: functional

Compared with `Cc1nc(NCCCc2ccccc2)nc(C(F)(F)F)n1`, `Cc1nc(NCCc2ccccc2)nc(C(F)(F)F)n1` is lower in Activity: 76% for the first, 51% for the second.

Going from `CCc1nc(NCc2ccccc2)nc(C(F)(F)F)n1` to `Cc1nc(NCc2ccccc2)nc(C(F)(F)F)n1`, the Activity rises from 51% to 100%.

`Cc1nc(C)nc(NCc2ccccc2)n1` and `CCc1nc(C)nc(NCc2ccccc2)n1` are the same in Activity: 0% for the first, 0% for the second.

Going from `CC(C)c1nc(NCc2ccccc2)nc(C(F)(F)F)n1` to `Cc1nc(NCc2ccccc2)nc(C(Cl)(Cl)Cl)n1`, the Activity falls from 76% to 0%.

`Cc1ncnc(NCc2ccccc2)n1` and `CCCc1nc(C)nc(NCc2ccccc2)n1` are the same in Activity: 0% for the first, 0% for the second.

`Cc1nc(NCc2ccccc2)nc(-c2ccccc2)n1` showed an Activity of 0%.

System: Digitaria ciliaris
Assay: Herbicidal activity against Digitaria ciliaris assessed as killing at 800 g/10 acre measured after 3 weeks by pre-emergence/field application test
Format: functional

Compared with `Cc1nc(NCCCc2ccccc2)nc(C(F)(F)F)n1`, `Cc1nc(NCCc2ccccc2)nc(C(F)(F)F)n1` is lower in Activity: 100% for the first, 76% for the second.

`CCc1nc(NCc2ccccc2)nc(C(F)(F)F)n1` and `Cc1nc(NCc2ccccc2)nc(C(F)(F)F)n1` are the same in Activity: 100% for the first, 100% for the second.

`Cc1nc(C)nc(NCc2ccccc2)n1` and `CCc1nc(C)nc(NCc2ccccc2)n1` are the same in Activity: 0% for the first, 0% for the second.

Compared with `CC(C)c1nc(NCc2ccccc2)nc(C(F)(F)F)n1`, `Cc1nc(NCc2ccccc2)nc(C(Cl)(Cl)Cl)n1` is lower in Activity: 76% for the first, 0% for the second.

`Cc1ncnc(NCc2ccccc2)n1` and `CCCc1nc(C)nc(NCc2ccccc2)n1` are the same in Activity: 0% for the first, 0% for the second.

For `Cc1nc(NCc2ccccc2)nc(-c2ccccc2)n1`, the Activity was 0%.

System: Stellaria media
Assay: Herbicidal activity against Stellaria media assessed as killing at 100 g/10 acre measured after 3 weeks by post-emergence/foliar application test
Format: functional

In the case of `CCNc1nc(Cl)nc(NC(C)C)n1` [ATRAZINE], the Activity is reported as 100%.

System: Digitaria ciliaris
Assay: Herbicidal activity against Digitaria ciliaris assessed as killing at 100 g/10 acre measured after 3 weeks by post-emergence/foliar application test
Format: functional

`CCNc1nc(Cl)nc(NC(C)C)n1` [ATRAZINE] was tested, and the Activity was 0%.

System: Chenopodium album
Assay: Herbicidal activity against Chenopodium album assessed as killing at 800 g/10 acre measured after 3 weeks by pre-emergence/field application test
Format: functional

First: Cc1nc(NCCCc2ccccc2)nc(C(F)(F)F)n1
Second: Cc1nc(NCCc2ccccc2)nc(C(F)(F)F)n1
The Activity of the first is lower: 76% for the first, 91% for the second.

Compared with `Cc1nc(C)nc(NCc2ccccc2)n1`, `CCc1nc(C)nc(NCc2ccccc2)n1` is higher in Activity: 0% for the first, 51% for the second.

Compared with `CC(C)c1nc(NCc2ccccc2)nc(C(F)(F)F)n1`, `Cc1nc(NCc2ccccc2)nc(C(Cl)(Cl)Cl)n1` is lower in Activity: 76% for the first, 0% for the second.

`Cc1ncnc(NCc2ccccc2)n1` and `CCCc1nc(C)nc(NCc2ccccc2)n1` are the same in Activity: 0% for the first, 0% for the second.

In the case of `Cc1nc(NCc2ccccc2)nc(-c2ccccc2)n1`, the Activity is reported as 0%.

System: Digitaria ciliaris
Assay: Herbicidal activity against Digitaria ciliaris assessed as killing at 400 g/10 acre measured after 3 weeks by post-emergence/foliar application test
Format: functional

Going from `Cc1nc(NCCCc2ccccc2)nc(C(F)(F)F)n1` to `Cc1nc(NCCc2ccccc2)nc(C(F)(F)F)n1`, the Activity falls from 76% to 0%.

Compared with `CCc1nc(NCc2ccccc2)nc(C(F)(F)F)n1`, `Cc1nc(NCc2ccccc2)nc(C(F)(F)F)n1` is higher in Activity: 1% for the first, 76% for the second.

`Cc1nc(C)nc(NCc2ccccc2)n1` and `CCCc1nc(C)nc(NCc2ccccc2)n1` are the same in Activity: 1% for the first, 1% for the second.

`CC(C)c1nc(NCc2ccccc2)nc(C(F)(F)F)n1` and `Cc1nc(NCc2ccccc2)nc(C(Cl)(Cl)Cl)n1` are the same in Activity: 0% for the first, 0% for the second.

`Cc1ncnc(NCc2ccccc2)n1` and `Cc1nc(NCc2ccccc2)nc(-c2ccccc2)n1` are the same in Activity: 0% for the first, 0% for the second.

System: Pontederia vaginalis
Assay: Herbicidal activity against Monochoria vaginalis assessed as killing at 800 g/10 acre measured after 3 weeks by pre-emergence/paddy application test
Format: functional

Going from `Cc1nc(NCCCc2ccccc2)nc(C(F)(F)F)n1` to `Cc1nc(NCCc2ccccc2)nc(C(F)(F)F)n1`, the Activity rises from 51% to 76%.

`CCc1nc(NCc2ccccc2)nc(C(F)(F)F)n1` and `Cc1nc(NCc2ccccc2)nc(C(F)(F)F)n1` are the same in Activity: 100% for the first, 100% for the second.

Going from `Cc1nc(C)nc(NCc2ccccc2)n1` to `CCc1nc(C)nc(NCc2ccccc2)n1`, the Activity falls from 100% to 51%.

`CC(C)c1nc(NCc2ccccc2)nc(C(F)(F)F)n1` and `Cc1nc(NCc2ccccc2)nc(C(Cl)(Cl)Cl)n1` are the same in Activity: 100% for the first, 100% for the second.

Compared with `Cc1ncnc(NCc2ccccc2)n1`, `CCCc1nc(C)nc(NCc2ccccc2)n1` is higher in Activity: 0% for the first, 26% for the second.

`Cc1nc(NCc2ccccc2)nc(-c2ccccc2)n1` gave an Activity of 0%.

System: Chenopodium album
Assay: Herbicidal activity against Chenopodium album assessed as killing at 400 g/10 acre measured after 3 weeks by post-emergence/foliar application test
Format: functional

First: Cc1nc(NCCCc2ccccc2)nc(C(F)(F)F)n1
Second: Cc1nc(NCCc2ccccc2)nc(C(F)(F)F)n1
The Activity of the first is higher: 100% for the first, 91% for the second.

Going from `CCc1nc(NCc2ccccc2)nc(C(F)(F)F)n1` to `Cc1nc(NCc2ccccc2)nc(C(F)(F)F)n1`, the Activity rises from 51% to 100%.

Compared with `Cc1nc(C)nc(NCc2ccccc2)n1`, `CCCc1nc(C)nc(NCc2ccccc2)n1` is higher in Activity: 51% for the first, 91% for the second.

`CC(C)c1nc(NCc2ccccc2)nc(C(F)(F)F)n1` and `Cc1nc(NCc2ccccc2)nc(C(Cl)(Cl)Cl)n1` are the same in Activity: 0% for the first, 0% for the second.

`Cc1ncnc(NCc2ccccc2)n1` and `Cc1nc(NCc2ccccc2)nc(-c2ccccc2)n1` are the same in Activity: 0% for the first, 0% for the second.

System: Echinochloa oryzicola
Assay: Herbicidal activity against Echinochloa oryzicola assessed as killing at 800 g/10 acre measured after 3 weeks by pre-emergence/paddy application test
Format: functional

Going from `Cc1nc(NCCCc2ccccc2)nc(C(F)(F)F)n1` to `Cc1nc(NCCc2ccccc2)nc(C(F)(F)F)n1`, the Activity rises from 1% to 26%.

First: CCc1nc(NCc2ccccc2)nc(C(F)(F)F)n1
Second: Cc1nc(NCc2ccccc2)nc(C(F)(F)F)n1
The Activity of the first is higher: 91% for the first, 76% for the second.

First: Cc1nc(C)nc(NCc2ccccc2)n1
Second: CCc1nc(C)nc(NCc2ccccc2)n1
The Activity of the first is lower: 51% for the first, 76% for the second.

Compared with `CC(C)c1nc(NCc2ccccc2)nc(C(F)(F)F)n1`, `Cc1nc(NCc2ccccc2)nc(C(Cl)(Cl)Cl)n1` is lower in Activity: 100% for the first, 76% for the second.

First: Cc1ncnc(NCc2ccccc2)n1
Second: CCCc1nc(C)nc(NCc2ccccc2)n1
The Activity of the first is higher: 51% for the first, 26% for the second.

`Cc1nc(NCc2ccccc2)nc(-c2ccccc2)n1` gave an Activity of 0%.

System: Echinochloa crus-galli
Assay: Herbicidal activity against Echinochloa crus-galli (barnyard grass) assessed as killing at 100 g/10 acre measured after 3 weeks by post-emergence/foliar application test
Format: functional

For `CCNc1nc(Cl)nc(NC(C)C)n1` [ATRAZINE], the Activity was 26%.
